In assay [1] the test system is HMPV clinical isolate TN/1501/A1. As to the kind of experiment: HMPV antiviral assay Method-B (clinical isolate TN/1501/A1 in LLC-MK2 cells, ATP-Lite readout). As to conditions: human metapneumovirus, LLC-MK2, 144 h, hMPV WT1501 (clinical isolate TN/1501/A1), 6 days. The class given is cell-based, Human metapneumovirus (HMPV). The method, boiled down: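 EC50 derived by four-parameter logistic fit of percent cell health, measured by ATP-Lite luminescence and normalised to virus-only and uninfected-cell controls. Compounds run in duplicate from 10 μM top, 3-fold, 10 points. Infection: LLC-MK2 cells, MOI 0.014, 2 μg/mL final TPCK-trypsin, serum-free, 6 days at 37° C.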

In assay [2] the test system is genotype A, "Long" strain RSV. As to the kind of experiment: RSV-A assay (CPE protection in Hep-2 cells, ATPlite readout). The assay is classed as cell-based, Human respiratory syncytial virus (HRSV). The note with it: MOI 0.1, CPE protection. The method, boiled down:
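Protection from RSV-induced cytopathic effect measured by ATP content (ATPlite) after 5-day culture. Infection used genotype A Long virus at MOI 0.1 on 8,000 Hep-2 cells per well, with compound serially diluted 2-fold; values are EC50.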
A general note: In ATP-based viability assays light output follows the ATP content of the culture.

Setting [3] is: human respiratory syncytial virus, genotype A “Long” strain RSV, read-out: Human RSV-A (“Long”).
[4] abbreviates: human respiratory syncytial virus, RSV-A Long strain, read-out: Human RSV-A (“Long”) EC50.

pEC50: −log10 of the molar value. Where two headings read alike, the source gives them in different places.

On to `C[C@]1(C(N)=O)COc2c1cc([C@@](O)(CNC(=O)c1ccn3nc(C4CC4)cc3c1)C1CC1)nc2-c1ccc2c(c1)OC(F)(F)O2` [Example 824], for which the results for the pEC50 in assay [1] and in assay [2] (setting [3]) were greater than 6.30 and greater than 6.70, respectively.
As to `COc1cc(C(=O)NC[C@](O)(c2cc3c(c(-c4ccc(F)c(F)c4F)n2)OC[C@]3(C)C(N)=O)C(F)(F)F)cc2cc(C(F)(F)F)cnc12` [Example 512], the pEC50 in assay [1] was less than 6.30; in assay [2] (setting [3]) it was greater than 6.70.
As to `Cc1nc2c(OC3CC3)cc(C(=O)NC[C@](O)(c3cc4c(c(-c5ccc(F)c(F)c5F)n3)OC[C@]4(C)C(N)=O)C3CC3)cc2cc1Cl` [Example 530], the pEC50 was greater than 6.30 in assay [1] and greater than 6.70 in assay [2] (setting [3]).
As to `C[C@]1(C(N)=O)COc2c1cc([C@@](O)(CNC(=O)c1cc(Cl)c3nn(C4(F)CC4)cc3c1)C(F)(F)F)nc2-c1ccc(F)cc1` [Example 834], the pEC50 in assay [1] is greater than 6.30; in assay [2] (setting [4]), greater than 6.70.
For `COc1cc(C(=O)NC[C@](O)(c2cc3c(c(-c4ccc5c(ccn5C(F)F)c4)n2)OC[C@]3(C)C(N)=O)C(F)(F)F)cc2cn(C3CC3)nc12` [Example 939], the pEC50 in assay [1] is less than 6.30; in assay [2] (setting [4]) it was greater than 6.70.
Turning to `Cc1cnc2c(OCC(F)F)cc(C(=O)NC[C@](O)(c3cc4c(c(-c5ccc(F)c(Cl)c5)n3)OC[C@]4(C)C(N)=O)C(F)(F)F)cc2c1` [Example 497], the pEC50 was greater than 6.30 in assay [1] and greater than 6.70 in assay [2] (setting [3]).
In the case of `COc1cc(C(=O)NC[C@](O)(c2cc3c(c(-c4ccc(F)c(Cl)c4F)n2)OC[C@]3(C)C(N)=O)C2CC2)cc2cc(C)c(Cl)nc12` [Example 1072], the pEC50 in assay [1] was greater than 6.30; in assay [2] (setting [4]), greater than 6.70.
Consider `CC[C@]1(C(N)=O)COc2c1cc([C@@](O)(CNC(=O)c1cc(OC)c3nn(C4CC4)cc3c1)C(F)(F)F)nc2-c1ccc(F)cc1` [Example 573], for which the pEC50 was greater than 6.30 in assay [1] and greater than 6.70 in assay [2] (genotype A “Long” strain RSV, read-out: Human RSV-A (“Long”)).
For `COc1cc(C(=O)NC[C@](O)(c2cc3c(c(-c4ccc5c(c4)OC(F)(F)O5)n2)OC[C@]3(C(N)=O)C(F)F)C2CC2)cc2cc(C3CC3)nn12` [Example 1012], the pEC50 in assay [1] is less than 6.30; in assay [2] (setting [4]) it was less than 6.70.
Take `COc1cc(C(=O)NC[C@](O)(c2cc3c(c(-c4ccc(F)cc4)n2)OC[C@]3(C)C(N)=O)C2CC2)cc2sc(C)nc12` [Example 728]: the results for the pEC50 in assay [1] and in assay [2] (setting [3]) were greater than 6.30 and greater than 6.70, respectively.
In the case of `COc1cc(C(=O)NC[C@](O)(c2cc3c(c(-c4cccc(Br)c4F)n2)OC[C@]3(C)C(N)=O)C2CC2)cc2cn(C3(F)CC3)nc12` [Example 1087], the pEC50 in assay [1] is greater than 6.30; in assay [2] (setting [4]), greater than 6.70.
The corresponding values for `COc1cc(C(=O)NC[C@](O)(c2nc(-c3cc(Cl)c(F)cc3F)c3c(c2F)[C@@](C)(C(N)=O)CO3)C2CC2)cc2cn(C3CC3)nc12` [Example 862] are greater than 6.30 and greater than 6.70.
Turning to `COc1cc(C(=O)NC[C@](O)(c2cc3c(c(-c4csc5c(F)cccc45)n2)OC[C@]3(C)C(N)=O)C(F)(F)F)cc2cn(C(F)F)nc12` [Example 600], the pEC50 is greater than 6.30 in assay [1] and greater than 6.70 in assay [2] (setting [3]).
In the case of `Cc1cnc2c(OC(F)F)cc(C(=O)NC[C@](O)(c3cc4c(c(-c5cc(F)c(Cl)cc5F)n3)OC[C@]4(C)C(N)=O)C3CC3)cc2c1` [Example 1183], the results for the pEC50 in assay [1] and in assay [2] (setting [4]) were greater than 6.30 and greater than 6.70, respectively.
As for `C[C@]1(C(N)=O)COc2c1cc([C@@](O)(CNC(=O)c1cc(OC3CC3)c3nn(C(F)F)cc3c1)C(F)(F)F)nc2-c1ccc(F)c(Cl)c1F` [Example 567], the pEC50 in assay [1] was greater than 6.30; in assay [2] (setting [3]), greater than 6.70.
Turning to `C[C@]1(C(N)=O)COc2c1cc([C@@](O)(CNC(=O)c1cc(F)c3nn(C4CC4)cc3c1)C1CC1)nc2-c1csc2c(F)cccc12` [Example 608], the pEC50 is greater than 6.30 in assay [1] and greater than 6.70 in assay [2] (setting [3]).
In the same order, the values of `COc1cc(C(=O)NC[C@](O)(c2cc3c(c(-c4ccc5c(c4)OC(F)(F)O5)n2)OC[C@]3(C)C(N)=O)C2(F)CC2)cc2cc(C3CC3)nn12` [Example 716] are greater than 6.30 and greater than 6.70.

(Values after patent publication US12612412B2, “Antiviral heterocyclic compounds” (Enanta Pharmaceuticals, Inc., priority 2021, dated 2026).)
